Values belong to the molecule of their own block, whether it stands above or below them. Positions of bridges follow the written chain, without caps; N, C: chain ends. Non-standard residues stand in square brackets, D forms with d. Residues, ends and D or L forms follow the SMILES beside them.
What was measured:
[1] = biological target: retromer holo-complex (Homo sapiens, UniProt O75436+Q96QK1+Q9UBQ0); test: Differential scanning fluorimetry of retromer; assay type: binding; details: DSF
[2] = biological target: Vps29 (Homo sapiens, UniProt Q9UBQ0); test: Differential scanning fluorimetry of Vps29; assay type: binding; details: DSF, 20-fold molar excess
[3] = biological target: TBC1D5TBC into Retromer (Homo sapiens, UniProt O75436+Q96QK1+Q9UBQ0); test: ITC of TBC1D5TBC into retromer in presence of cyclic peptide; assay type: binding; details: native 370 nM
[4] = biological target: SNX27PDZ into Retromer (Homo sapiens, UniProt O75436+Q96QK1+Q9UBQ0); test: ITC of SNX27PDZ into retromer in presence of cyclic peptide; assay type: binding, mouse SNX27; details: 1.3 mM SNX27PDZ into 30 μM retromer + 150 μM peptide; native (DMSO) 13.0 ± 0.5
[5] = test system: TBC1D5 localization in HeLa cells; test: TBC1D5 endosomal localization after SLO delivery of peptide; assay type: cell-based, human; details: 2 hours recovery, colocalization with SNX1
[6] = biological target: GST-TBC1D5TBC binding to retromer (Homo sapiens, UniProt O75436+Q96QK1+Q9UBQ0); test: GST pull-down assay; details: GST pulldown, purified proteins
[7] = Solubility observations; assay type: physicochemical; details: ITC buffer
[8] = biological target: Vps26A9-298_Vps351-390 (Δ C-term. tail complex) (Homo sapiens, UniProt O75436+Q96QK1); test: ITC binding to Vps26A ΔC-term. tail subcomplex; details: 25°C, Vps26A C-terminal tail removed
[9] = biological target: Vps26BΔC-Vps35_1–390 (UniProt Q8C0E2+Q96QK1); test: ITC binding to Vps26B ΔC-term. tail subcomplex; set-up: species or system mouse Vps26B, human Vps35
[10] = biological target: zfRetromer (Danio rerio, UniProt A4QP42+Q6TNP8); test: ITC binding to zebrafish retromer
[11] = biological target: T1, ctRetromer (Thermochaetoides thermophila, UniProt G0S0E6+G0S709); test: ITC binding to C. thermophilum retromer; set-up: species or system Chaetomium thermophilum; details: 25°C
T1 sequence (G0S709 1-869): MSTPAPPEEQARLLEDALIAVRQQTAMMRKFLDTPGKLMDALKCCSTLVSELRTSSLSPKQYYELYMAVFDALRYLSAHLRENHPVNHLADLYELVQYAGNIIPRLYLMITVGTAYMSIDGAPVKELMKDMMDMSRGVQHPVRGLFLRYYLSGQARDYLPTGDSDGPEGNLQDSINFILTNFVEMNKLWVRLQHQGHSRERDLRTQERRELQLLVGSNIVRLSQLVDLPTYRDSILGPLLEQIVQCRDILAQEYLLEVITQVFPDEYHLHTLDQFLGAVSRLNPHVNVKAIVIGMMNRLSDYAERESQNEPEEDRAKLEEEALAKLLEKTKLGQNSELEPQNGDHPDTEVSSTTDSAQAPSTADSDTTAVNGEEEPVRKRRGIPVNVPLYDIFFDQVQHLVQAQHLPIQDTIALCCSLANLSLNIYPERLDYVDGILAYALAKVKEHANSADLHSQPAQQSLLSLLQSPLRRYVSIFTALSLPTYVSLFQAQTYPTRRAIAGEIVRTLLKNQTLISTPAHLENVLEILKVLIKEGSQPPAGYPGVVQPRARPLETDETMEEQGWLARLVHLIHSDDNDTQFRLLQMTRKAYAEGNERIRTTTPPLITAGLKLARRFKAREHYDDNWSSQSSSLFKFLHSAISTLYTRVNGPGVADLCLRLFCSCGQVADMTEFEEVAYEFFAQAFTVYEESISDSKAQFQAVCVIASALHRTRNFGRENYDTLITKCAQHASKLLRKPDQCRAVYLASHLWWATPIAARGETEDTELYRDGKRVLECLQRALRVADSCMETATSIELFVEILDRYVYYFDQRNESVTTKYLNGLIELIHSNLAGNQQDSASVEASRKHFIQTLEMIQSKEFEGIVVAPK
T1 sequence (G0S0E6 1-316): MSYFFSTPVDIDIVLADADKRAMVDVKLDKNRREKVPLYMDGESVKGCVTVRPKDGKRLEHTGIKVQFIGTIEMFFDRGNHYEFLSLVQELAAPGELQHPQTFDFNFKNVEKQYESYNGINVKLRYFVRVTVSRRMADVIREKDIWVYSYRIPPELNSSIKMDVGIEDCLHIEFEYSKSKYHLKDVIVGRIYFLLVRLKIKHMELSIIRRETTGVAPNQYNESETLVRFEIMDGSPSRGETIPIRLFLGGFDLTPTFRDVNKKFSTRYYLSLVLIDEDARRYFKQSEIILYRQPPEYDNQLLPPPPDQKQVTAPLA

[12] = biological target: Vps26A-Vps35_1–390 subcomplex (Homo sapiens, UniProt O75436+Q96QK1); test: Differential scanning fluorimetry of Vps26A-Vps35 1-390; assay type: binding; details: DSF
[13] = biological target: Vps26A (Homo sapiens, UniProt O75436); test: Differential scanning fluorimetry of Vps26A; assay type: binding; details: DSF, control experiment
[14] = biological target: retromer and its ligands in HeLa cell lysates (Homo sapiens, UniProt O75436+Q96QK1+Q9UBQ0); test: Biotinylated cyclic peptide pull-down from HeLa cell lysates; assay type: binding; details: streptavidin agarose, Western blotting
[15] = biological target: Rab7a with TBC1D5TBC and retromer (Homo sapiens, UniProt O75436+Q96QK1+Q9UBQ0); test: GTPase activity assay; assay type: biochemical; details: 10 μM Rab7a, 3 μM TBC1D5TBC, 6 μM retromer, 60 μM peptide
[16] = biological target: retromer binding to SNX3–CI-MPR cargo-PtdIns3P liposomes (Homo sapiens, UniProt O75436+Q96QK1+Q9UBQ0); test: Liposome binding assay; details: Folch I liposomes, 7 μM retromer-SNX3
[17] = biological target: human retromer complex (Vps35-[change]-Vps29) (human) (UniProt Q96QK1); test: ITC

- effect on melting temperature (Tm) of Vps29 [2]: increased
Molecule: CC[C@H](C)[C@@H]1NC(=O)[C@H](CCCNC(=N)N)NC(=O)[C@@H]2CCCN2C(=O)[C@H](Cc2ccccc2)NC(=O)[C@H]([C@@H](C)O)NC(=O)CNC(=O)[C@H](CC(C)C)NC(=O)[C@@H]2CCCN2C(=O)[C@H]([C@@H](C)O)NC(=O)[C@H](Cc2c[nH]c3ccccc23)NC(=O)[C@H](Cc2ccc(O)cc2)NC(=O)[C@H]([C@@H](C)CC)NC(=O)[C@H]([C@@H](C)O)NC(=O)[C@H]([C@@H](C)O)NC(=O)[C@@H](Cc2ccc(O)cc2)NC(=O)CSC[C@@H](C(N)=O)NC(=O)[C@H](CCCNC(=N)N)NC1=O [RT-D2] ({CH2CO}-[dY]TTIYWTPLGTFPRIRC-NH2; thioether N-17)

- effect on melting temperature (Tm) of Vps29 [2]: increased
Molecule: CC[C@H](C)[C@@H]1NC(=O)[C@H](Cc2ccc(O)cc2)NC(=O)CSC[C@@H](C(N)=O)NC(=O)CNC(=O)[C@H](Cc2c[nH]cn2)NC(=O)[C@H](CCCNC(=N)N)NC(=O)[C@H](CC(N)=O)NC(=O)[C@@H]2CCCN2C(=O)[C@H](Cc2ccccc2)NC(=O)[C@H]([C@@H](C)O)NC(=O)CNC(=O)[C@H](CC(C)C)NC(=O)[C@@H]2CCCN2C(=O)[C@H]([C@@H](C)O)NC(=O)[C@H](CCCCN)NC1=O [RT-L1] ({CH2CO}-YIKTPLGTFPNRHGC-NH2; thioether N-15)

- effect on melting temperature (Tm) of Vps29 [2]: increased
Molecule: CC[C@H](C)[C@@H]1NC(=O)[C@H]([C@@H](C)O)NC(=O)[C@@H]2CCCN2C(=O)[C@H](CC(C)C)NC(=O)[C@H](Cc2ccc(O)cc2)NC(=O)CSC[C@@H](C(N)=O)NC(=O)[C@H](CC(C)C)NC(=O)[C@@H]2CCCN2C(=O)[C@H](Cc2c[nH]cn2)NC(=O)[C@H](Cc2c[nH]c3ccccc23)NC(=O)[C@H](CC(C)C)NC(=O)[C@H](Cc2c[nH]cn2)NC(=O)CNC(=O)[C@H](C(C)C)NC(=O)CNC(=O)[C@H]([C@@H](C)O)NC1=O [RT-L2] ({CH2CO}-YLPTITGVGHLWHPLC-NH2; thioether N-16)

- Kd [17]: 370 nM
Molecule: TBC domain of human TBC1D5 (from UniProt Q92609 1-795) (domain or fragment)

Continued, molecule first:

Molecule: N=C(N)SCc1ccc(CSC(=N)N)s1 [R55]
- impact on thermal stability (Tm) of retromer ([1]; 3 µM Retromer, 60 μM compound or 30-fold molar excess of peptide): unable to detect significant improvement
- impact on Retromer stability ([1]; 1 mM (>300-fold molar excess)): little impact

Molecule: CC[C@H](C)[C@@H]1NC(=O)[C@H]([C@@H](C)CC)NC(=O)[C@@H](Cc2ccc(O)cc2)NC(=O)CSC[C@@H](C(N)=O)NC(=O)[C@H](CCCNC(=N)N)NC(=O)[C@H](CCCCN)NC(=O)[C@H](CC(C)C)NC(=O)[C@H](CO)NC(=O)[C@H](CO)NC(=O)[C@H](CC(C)C)NC(=O)[C@H](Cc2ccccc2)NC(=O)[C@H](C(C)C)NC(=O)CNC(=O)[C@H](CC(C)C)NC(=O)[C@@H]2CCCN2C(=O)[C@H]([C@@H](C)O)NC(=O)[C@H](CC(=O)O)NC1=O [RT-D1] ({CH2CO}-[dY]IIDTPLGVFLSSLKRC-NH2; thioether N-17)
- effect on melting temperature (Tm) of Vps29 [2]: increased

Molecule: CC(C)C[C@@H]1NC(=O)CNC(=O)[C@H](CC(C)C)NC(=O)[C@@H]2CCCN2C(=O)[C@H](CC(=O)O)NC(=O)[C@H](Cc2ccc(O)cc2)NC(=O)CNC(=O)[C@@H](Cc2ccc(O)cc2)NC(=O)CSC[C@@H](C(N)=O)NC(=O)[C@H](C)NC(=O)[C@H](Cc2ccccc2)NC(=O)[C@H](Cc2ccc(O)cc2)NC(=O)[C@H](CCCCN)NC1=O [RT-D3] ({CH2CO}-[dY]GYDPLGLKYFAC-NH2; thioether N-13)
- effect on melting temperature (Tm) of Vps29 [2]: increased
- Kd [3]: undetectable
- Kd [4]: no impact
- effect on TBC1D5 localization to endosomal structures [5]: significant dispersal
- effect on GST-TBC1D5TBC interaction with retromer [6]: inhibited

Molecule: CC(C)C[C@@H]1NC(=O)[C@@H]2CCCN2C(=O)[C@H](CC(=O)O)NC(=O)[C@H](Cc2c[nH]c3ccccc23)NC(=O)CNC(=O)[C@@H](Cc2ccc(O)cc2)NC(=O)CSC[C@@H](C(N)=O)NC(=O)[C@H](C(C)C)NC(=O)[C@H](Cc2ccccc2)NC(=O)[C@H](Cc2ccc(O)cc2)NC(=O)[C@H](CC(N)=O)NC(=O)[C@H](C(C)C)NC(=O)[C@H](Cc2ccc(O)cc2)NC1=O [RT-D4] ({CH2CO}-[dY]GWDPLYVNYFVC-NH2; thioether N-13)
- solubility for ITC experiments [7]: not sufficiently soluble for ITC experiments

Molecule: CC(C)C[C@@H]1NC(=O)[C@H](Cc2ccc(O)cc2)NC(=O)CSC[C@@H](C(N)=O)NC(=O)[C@H](CC(N)=O)NC(=O)[C@H](C(C)C)NC(=O)[C@H](Cc2ccc(O)cc2)NC(=O)[C@H](Cc2ccccc2)NC(=O)[C@H](CC(C)C)NC(=O)[C@H](CCCNC(=N)N)NC(=O)[C@H](C(C)C)NC(=O)[C@H](Cc2ccc(O)cc2)NC(=O)[C@H](CC(C)C)NC(=O)[C@@H]2CCCN2C(=O)[C@H](CC(=O)O)NC(=O)[C@H](Cc2ccccc2)NC(=O)[C@H](CCC(=O)O)NC1=O [RT-L3] ({CH2CO}-YLEFDPLYVRLFYVNC-NH2; thioether N-16)
- solubility for ITC experiments [7]: not sufficiently soluble for ITC experiments

Molecule: CC[C@H](C)[C@@H]1NC(=O)[C@H](Cc2c[nH]c3ccccc23)NC(=O)[C@H](Cc2ccc(O)cc2)NC(=O)CSC[C@@H](C(N)=O)NC(=O)[C@H]([C@@H](C)O)NC(=O)[C@H](CO)NC(=O)[C@H](C(C)C)NC(=O)[C@H](Cc2ccc(O)cc2)NC(=O)[C@H](CCCNC(=N)N)NC(=O)[C@H](Cc2ccc(O)cc2)NC(=O)[C@H]([C@@H](C)O)NC(=O)[C@H]([C@@H](C)O)NC(=O)[C@H](Cc2c[nH]c3ccccc23)NC(=O)[C@H](CO)NC(=O)[C@H](CC(N)=O)NC(=O)[C@H](CO)NC1=O [RT-L4] ({CH2CO}-YWISNSWTTYRYVSTC-NH2; thioether N-16)
- Kd [8]: ~40 nM
- Kd [9]: ~40 nM
- Kd [10]: 88 nM
- Kd [11]: 5000 nM
- effect on melting temperature (Tm) of Vps29 [2]: did not affect
- increase in Tm for the Vps26A-Vps35_1–390 subcomplex [12]: 8 °C
- effect on thermal stability of Vps26A alone [13]: did not affect
- retromer ligands recovered with peptide-bound retromer [14]: able to interact with TBC1D5, VARP, Fam21, SNX27, and the SNX3–DMT1-II complex
- GAP-stimulated GTP hydrolysis of Rab7a [15]: slight improvement
- retromer binding to SNX3–CI-MPR cargo-PtdIns3P liposomes [16]: subtle reduction
- effect on TBC1D5 localization to endosomal structures [5]: no discernible effect

From article PMC8635440 (Science Advances, 2021)
